Laboratory results reported in patent publication US12427157B2, “Methods for treatment of diseases involving acidic or hypoxic diseased tissues” (Cybrexa 1, Inc., priority 2018, dated 2025).
Residues, ends and D or L forms follow the SMILES beside them. *: point of attachment. X11 = CN(Cc1ccc(-c2[nH]c3cc(F)cc4c3c2CCNC4=O)cc1)C(=O)OCc1ccc(NC(=O)OCCS*)cc1; X13 = Cc1cc(COC(=O)N(C)Cc2ccc(-c3[nH]c4cc(F)cc5c4c3CCNC5=O)cc2)cc(C)c1S*; X5 = CNCc1ccc(-c2c3c4c(cc(F)cc4n2[C@H](CC(C)C)NC(=O)OCCS*)C(=O)NCC3)cc1; X15 = Cc1cc(S*)ccc1COC(=O)N(C)Cc1ccc(-c2[nH]c3cc(F)cc4c3c2CCNC4=O)cc1; X18 = CNCc1ccc(-c2c3c4c(cc(F)cc4n2CNC(=O)OCCS*)C(=O)NCC3)cc1

Target: PARP (Homo sapiens, UniProt P09874)
Sequence (P09874 whole entry): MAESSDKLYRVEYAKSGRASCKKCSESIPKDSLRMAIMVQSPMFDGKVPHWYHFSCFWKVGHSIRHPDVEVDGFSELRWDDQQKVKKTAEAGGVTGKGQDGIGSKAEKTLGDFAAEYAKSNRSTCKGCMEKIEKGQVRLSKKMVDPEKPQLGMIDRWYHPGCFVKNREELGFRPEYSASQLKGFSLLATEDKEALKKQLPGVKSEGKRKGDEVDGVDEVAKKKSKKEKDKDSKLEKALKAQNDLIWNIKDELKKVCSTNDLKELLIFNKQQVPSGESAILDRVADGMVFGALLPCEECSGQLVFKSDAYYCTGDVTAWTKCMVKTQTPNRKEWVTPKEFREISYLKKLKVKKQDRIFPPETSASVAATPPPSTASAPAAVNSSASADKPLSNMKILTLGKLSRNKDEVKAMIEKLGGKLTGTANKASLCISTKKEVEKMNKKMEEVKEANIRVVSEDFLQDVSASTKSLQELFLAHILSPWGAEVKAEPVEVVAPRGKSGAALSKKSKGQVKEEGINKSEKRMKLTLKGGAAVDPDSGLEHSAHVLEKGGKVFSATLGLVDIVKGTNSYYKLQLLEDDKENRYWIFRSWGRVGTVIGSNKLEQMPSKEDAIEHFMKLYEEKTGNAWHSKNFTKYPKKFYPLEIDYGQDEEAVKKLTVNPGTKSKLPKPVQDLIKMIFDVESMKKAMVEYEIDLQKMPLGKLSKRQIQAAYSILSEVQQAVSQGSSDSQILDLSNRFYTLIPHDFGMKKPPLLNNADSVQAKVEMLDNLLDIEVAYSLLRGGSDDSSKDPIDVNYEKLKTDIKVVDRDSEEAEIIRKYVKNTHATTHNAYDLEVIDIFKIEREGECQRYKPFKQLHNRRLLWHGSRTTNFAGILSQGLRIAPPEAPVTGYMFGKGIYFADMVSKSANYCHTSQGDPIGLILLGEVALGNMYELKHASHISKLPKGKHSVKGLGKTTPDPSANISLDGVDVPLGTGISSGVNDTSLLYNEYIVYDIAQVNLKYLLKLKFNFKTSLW
Assay: Enzymatic Assay 2: HT Universal Chemiluminescent PARP Assay of cleaved compounds;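 further: PARP reaction with activated DNA run 1 h at room temperature, product detected via streptavidin-HRP and luminescence endpoint reading on a plate reader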
Details: read-out: IC50 Enzymatic Assay 2; Examples cleaved per Example A (crude cleavage solution); R^8H starting materials as such

Compound	IC50 [nM]
CC[C@H](C)[C@H](NC(=O)[C@@H]1CCCN1C(=O)[C@H](CC(N)=O)NC(=O)[C@H](CCC(N)=O)NC(=O)[C@H](CCC(=O)O)NC(=O)[C@H](C)N)C(=O)N[C@@H](Cc1ccc(O)cc1)C(=O)N[C@@H](Cc1c[nH]c2ccccc12)C(=O)N[C@@H](C)C(=O)N[C@@H](CCCNC(=N)N)C(=O)N[C@@H](Cc1ccc(O)cc1)C(=O)N[C@@H](C)C(=O)N[C@@H](CC(=O)O)C(=O)N[C@@H](Cc1c[nH]c2ccccc12)C(=O)N[C@@H](CC(C)C)C(=O)N[C@@H](Cc1ccccc1)C(=O)N[C@H](C(=O)N[C@H](C(=O)N1CCC[C@H]1C(=O)N[C@@H](CC(C)C)C(=O)N[C@@H](CC(C)C)C(=O)N[C@@H](CC(C)C)C(=O)N[C@@H](CC(C)C)C(=O)N[C@@H](CC(=O)O)C(=O)N[C@@H](CC(C)C)C(=O)N[C@@H](C)C(=O)N[C@@H](CC(C)C)C(=O)N[C@@H](CC(C)C)C(=O)N[C@H](C(=O)N[C@@H](CC(=O)O)C(=O)N[C@@H](C)C(=O)N[C@@H](CC(=O)O)C(=O)N[C@@H](CCC(=O)O)C(=O)N[C@@H](CSSc1ccc(COC(=O)N(C)Cc2ccc(-c3[nH]c4cc(F)cc5c4c3CCNC5=O)cc2)c(C)c1)C(=O)NCC(=O)O)C(C)C)[C@@H](C)O)[C@@H](C)O [Example 30] (H-AEQNPIYWARYADWLFTTPLLLLDLALLVDADEC(X15)G-OH; N-terminus and C-terminus assumed)	2.9
CC[C@H](C)[C@H](NC(=O)[C@@H]1CCCN1C(=O)[C@H](CC(N)=O)NC(=O)[C@H](CCC(N)=O)NC(=O)[C@H](CCC(=O)O)NC(=O)[C@H](C)N)C(=O)N[C@@H](Cc1ccc(O)cc1)C(=O)N[C@@H](Cc1c[nH]c2ccccc12)C(=O)N[C@@H](C)C(=O)N[C@@H](CCCNC(=N)N)C(=O)N[C@@H](Cc1ccc(O)cc1)C(=O)N[C@@H](C)C(=O)N[C@@H](CC(=O)O)C(=O)N[C@@H](Cc1c[nH]c2ccccc12)C(=O)N[C@@H](CC(C)C)C(=O)N[C@@H](Cc1ccccc1)C(=O)N[C@H](C(=O)N[C@H](C(=O)N1CCC[C@H]1C(=O)N[C@@H](CC(C)C)C(=O)N[C@@H](CC(C)C)C(=O)N[C@@H](CC(C)C)C(=O)N[C@@H](CC(C)C)C(=O)N[C@@H](CC(=O)O)C(=O)N[C@@H](CC(C)C)C(=O)N[C@@H](C)C(=O)N[C@@H](CC(C)C)C(=O)N[C@@H](CC(C)C)C(=O)N[C@H](C(=O)N[C@@H](CC(=O)O)C(=O)N[C@@H](C)C(=O)N[C@@H](CC(=O)O)C(=O)N[C@@H](CCC(=O)O)C(=O)N[C@@H](CSSc1c(C)cc(COC(=O)N(C)Cc2ccc(-c3[nH]c4cc(F)cc5c4c3CCNC5=O)cc2)cc1C)C(=O)NCC(=O)O)C(C)C)[C@@H](C)O)[C@@H](C)O [Example 31] (H-AEQNPIYWARYADWLFTTPLLLLDLALLVDADEC(X13)G-OH; N-terminus and C-terminus assumed)	3.3
CC[C@H](C)[C@H](NC(=O)[C@@H]1CCCN1C(=O)[C@H](CC(N)=O)NC(=O)[C@H](CCC(N)=O)NC(=O)[C@H](CCC(=O)O)NC(=O)[C@H](C)N)C(=O)N[C@@H](Cc1ccc(O)cc1)C(=O)N[C@@H](Cc1c[nH]c2ccccc12)C(=O)N[C@@H](C)C(=O)N[C@@H](CCCNC(=N)N)C(=O)N[C@@H](Cc1ccc(O)cc1)C(=O)N[C@@H](C)C(=O)N[C@@H](CC(=O)O)C(=O)N[C@@H](Cc1c[nH]c2ccccc12)C(=O)N[C@@H](CC(C)C)C(=O)N[C@@H](Cc1ccccc1)C(=O)N[C@H](C(=O)N[C@H](C(=O)N1CCC[C@H]1C(=O)N[C@@H](CC(C)C)C(=O)N[C@@H](CC(C)C)C(=O)N[C@@H](CC(C)C)C(=O)N[C@@H](CC(C)C)C(=O)N[C@@H](CC(=O)O)C(=O)N[C@@H](CC(C)C)C(=O)N[C@@H](C)C(=O)N[C@@H](CC(C)C)C(=O)N[C@@H](CC(C)C)C(=O)N[C@H](C(=O)N[C@@H](CC(=O)O)C(=O)N[C@@H](C)C(=O)N[C@@H](CC(=O)O)C(=O)N[C@@H](CCC(=O)O)C(=O)N[C@@H](CSSCCOC(=O)Nc1ccc(COC(=O)N(C)Cc2ccc(-c3[nH]c4cc(F)cc5c4c3CCNC5=O)cc2)cc1)C(=O)NCC(=O)O)C(C)C)[C@@H](C)O)[C@@H](C)O [Example 32] (H-AEQNPIYWARYADWLFTTPLLLLDLALLVDADEC(X11)G-OH; N-terminus and C-terminus assumed)	43.9
CC[C@H](C)[C@H](NC(=O)[C@@H]1CCCN1C(=O)[C@H](CC(N)=O)NC(=O)[C@H](CCC(N)=O)NC(=O)[C@H](CCC(=O)O)NC(=O)[C@H](C)N)C(=O)N[C@@H](Cc1ccc(O)cc1)C(=O)N[C@@H](Cc1c[nH]c2ccccc12)C(=O)N[C@@H](C)C(=O)N[C@@H](CCCNC(=N)N)C(=O)N[C@@H](Cc1ccc(O)cc1)C(=O)N[C@@H](C)C(=O)N[C@@H](CC(=O)O)C(=O)N[C@@H](Cc1c[nH]c2ccccc12)C(=O)N[C@@H](CC(C)C)C(=O)N[C@@H](Cc1ccccc1)C(=O)N[C@H](C(=O)N[C@H](C(=O)N1CCC[C@H]1C(=O)N[C@@H](CC(C)C)C(=O)N[C@@H](CC(C)C)C(=O)N[C@@H](CC(C)C)C(=O)N[C@@H](CC(C)C)C(=O)N[C@@H](CC(=O)O)C(=O)N[C@@H](CC(C)C)C(=O)N[C@@H](C)C(=O)N[C@@H](CC(C)C)C(=O)N[C@@H](CC(C)C)C(=O)N[C@H](C(=O)N[C@@H](CC(=O)O)C(=O)N[C@@H](C)C(=O)N[C@@H](CC(=O)O)C(=O)N[C@@H](CCC(=O)O)C(=O)N[C@@H](CSSCCOC(=O)NCn1c(-c2ccc(CNC)cc2)c2c3c(cc(F)cc31)C(=O)NCC2)C(=O)NCC(=O)O)C(C)C)[C@@H](C)O)[C@@H](C)O [Example 33] (H-AEQNPIYWARYADWLFTTPLLLLDLALLVDADEC(X18)G-OH; N-terminus and C-terminus assumed)	2.3
CC[C@H](C)[C@H](NC(=O)[C@@H]1CCCN1C(=O)[C@H](CC(N)=O)NC(=O)[C@H](CCC(N)=O)NC(=O)[C@H](CCC(=O)O)NC(=O)[C@H](C)N)C(=O)N[C@@H](Cc1ccc(O)cc1)C(=O)N[C@@H](Cc1c[nH]c2ccccc12)C(=O)N[C@@H](C)C(=O)N[C@@H](CCCNC(=N)N)C(=O)N[C@@H](Cc1ccc(O)cc1)C(=O)N[C@@H](C)C(=O)N[C@@H](CC(=O)O)C(=O)N[C@@H](Cc1c[nH]c2ccccc12)C(=O)N[C@@H](CC(C)C)C(=O)N[C@@H](Cc1ccccc1)C(=O)N[C@H](C(=O)N[C@H](C(=O)N1CCC[C@H]1C(=O)N[C@@H](CC(C)C)C(=O)N[C@@H](CC(C)C)C(=O)N[C@@H](CC(C)C)C(=O)N[C@@H](CC(C)C)C(=O)N[C@@H](CC(=O)O)C(=O)N[C@@H](CC(C)C)C(=O)N[C@@H](C)C(=O)N[C@@H](CC(C)C)C(=O)N[C@@H](CC(C)C)C(=O)N[C@H](C(=O)N[C@@H](CC(=O)O)C(=O)N[C@@H](C)C(=O)N[C@@H](CC(=O)O)C(=O)N[C@@H](CCC(=O)O)C(=O)N[C@@H](CSSCCOC(=O)N[C@@H](CC(C)C)n1c(-c2ccc(CNC)cc2)c2c3c(cc(F)cc31)C(=O)NCC2)C(=O)NCC(=O)O)C(C)C)[C@@H](C)O)[C@@H](C)O [Example 34] (H-AEQNPIYWARYADWLFTTPLLLLDLALLVDADEC(X5)G-OH; N-terminus and C-terminus assumed)	2.5
